Patent US20060293249A1, “Porphyrin derivatives” (PhotoBiotics Limited, priority 2002, published 2006)
Read-outs that look alike come from different tables or passages of the source.

Assays:
[1] = Determination of singlet oxygen quantum yields (phosphorescence at 1270 nm following laser excitation, relative to reference standard); type: physicochemical
Experimental: Air equilibrated solutions of the sensitisers were optically matched at the laser excitation wavelength along with that of the reference standard whose singlet oxygen quantum yield is known. Singlet oxygen generation is detected by its phosphorescence at 1270 nm following laser excitation. At each laser intensity the recorded phosphorescence trace was obtained by signal averaging 10 single shots. A linear regression between the signal amplitude and the laser intensity is carried out with the aim of calculating the slope of the straight line and since the gradient is proportional to the singlet oxygen quantum yield, by comparison with the gradient obtained for the standard, the singlet oxygen quantum yield for the sample can calculated using: φ=φstandard×(slopesample/slopestandard)×(absorptionsample/absorptionstandard)
This is a comparative method where the value obtained for φ is relative to that of a known standard. The quality of the results obtained are heavily dependent on the quality of the standard, which should be freshly prepared before measurements.

[2] = Solubility remark in synthesis; type: physicochemical
[3] = in toluene; known standard value; cited from earlier work
[4] = compounds known in the art; cited from earlier work

Zinc5-[5-(2′-(trimethylsilyl)ethyl-4-hydroxybenzoate)pentane]-10,15,20-tri-2-ethynylpyridine-porphyrin [Compound [11]]
singlet oxygen quantum yield [1]: around 0.81
singlet oxygen quantum yield ([1]; in toluene): 0.8109

5-Pentane-10,15,20-triiodo-porphyrin [[30]]
solubility [2]: limited solubility

5-Nonane-10,15,20-triiodo-porphyrin [[18]]
solubility [2]: limited solubility

C[Si](C)(C)CCOC(=O)c1ccc(OCCCCCc2c3nc(c(I)c4ccc([nH]4)c(I)c4nc(c(I)c5ccc2[nH]5)C=C4)C=C3)cc1 [[9], 5-[5-(2′-(trimethylsilyl)ethyl-4-hydroxybenzoate)pentane]-10,15,20-triiodo-porphyrin]
solubility [2]: limited solubility

C=Cc1c(C)c2cc3nc(c4c5[n-]c(cc6nc(cc1[n-]2)C(C)=C6CC)c(C)c5C(=O)[C@@H]4C(=O)OC)[C@@H](CCC(=O)OC/C=C(\C)CCC[C@H](C)CCC[C@H](C)CCCC(C)C)[C@@H]3C.[Mg+2] [chlorophyll A]
singlet oxygen quantum yield of reference standard [3]: 0.6

disulfonated aluminium phthalocyanine [AIPCS2]
singlet oxygen quantum yield [4]: 0.3
